Measurements published in US7300946B2, “N-(substituted arylmethyl)-4-(disubstituted methyl) piperidines and pyridines” (Bayer CropScience AG, priority 2002, dated 2007).

Test system: tobacco budworm (Heliothis virescens [Fabricius])
Assay: surface-treated diet test against the tobacco budworm
Assay type: in vivo
Conditions: tobacco budworm second instar larvae, surface-treated diet, 0.25 millimoles of candidate insecticide on the surface of the diet, five-day exposure; for Percent Mortality: compared to total number of insects infested; for Percent Growth Inhibition: inhibition of insect weight relative to untreated controls
Outline: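 Wheat germ artificial diet surface-treated with 40 µL of 50 mM DMSO stock diluted 1:7 in 1:1 water/acetone (0.25 millimolar on diet), or sub-multiples for rate tests. One second-instar larva per well, 25° C, 60% RH, 5 days; percent weight inhibition vs DMSO controls and percent mortality.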

Compound | Percent Mortality [%] | Percent Growth Inhibition [%]
Cn1nnc(-c2ccc(CN3CCC(C(OC(=O)Nc4ccc(C(F)(F)F)cc4)c4ccc(OC(F)(F)F)cc4)CC3)cc2)n1 (stereo not drawn) [Compound 290] | 100 | 100
CCn1nnc(-c2ccc(CN3CCC(C(OC(=O)Nc4ccc(C(F)(F)F)cc4)c4ccc(OC(F)(F)F)cc4)CC3)cc2)n1 (stereo not drawn) [Compound 291] | 100 | 95
CCn1nnc(-c2ccc(CN3CCC(C(OC(=O)Nc4ccc(Cl)c(C(F)(F)F)c4)c4ccc(C(F)(F)F)cc4)CC3)cc2)n1 (stereo not drawn) [Compound 292] | 100 | 100
CCn1nnc(-c2ccc(CN3CCC(C(OC(=O)Nc4cc(C(F)(F)F)cc(C(F)(F)F)c4)c4ccc(C(F)(F)F)cc4)CC3)cc2)n1 (stereo not drawn) [Compound 293] | 17 | 93
Cn1nnc(-c2ccc(CN3CCC(C(OC(=O)Nc4ccc(OC(F)(F)F)cc4)c4ccc(OC(F)(F)F)cc4)CC3)cc2)n1 (stereo not drawn) [Compound 294] | 100 | 100
CCn1nnc(-c2ccc(CN3CCC(C(OC(=O)Nc4ccc(OC(F)(F)F)cc4)c4ccc(OC(F)(F)F)cc4)CC3)cc2)n1 (stereo not drawn) [Compound 295] | 100 | 92
CCn1nnc(-c2ccc(CN3CCC(C(OC(=O)Nc4ccc(-c5ccccc5)cc4)c4ccc(C(F)(F)F)cc4)CC3)cc2)n1 (stereo not drawn) [Compound 297] | 100 | 100
CCn1nnc(-c2ccc(CN3CCC(C(OC(=O)Nc4ccc(Oc5ccccc5)cc4)c4ccc(C(F)(F)F)cc4)CC3)cc2)n1 (stereo not drawn) [Compound 298] | 100 | 100
CCn1nnc(-c2ccc(CN3CCC(C(OC(=S)Nc4ccc(C(F)(F)F)cc4)c4ccc(OC(F)(F)F)cc4)CC3)cc2)n1 (stereo not drawn) [Compound 302] | 100 | 100
CCn1nnc(-c2ccc(CN3CCC(C(OCc4ccc(C(F)(F)F)cc4)c4ccc(OC(F)(F)F)cc4)CC3)cc2)n1 (stereo not drawn) [Compound 304] | 100 | 95
CCn1nnc(-c2ccc(CN3CCC(C(OCc4ccc(OC(F)(F)F)cc4)c4ccc(OC(F)(F)F)cc4)CC3)cc2)n1 (stereo not drawn) [Compound 305] | 100 | 95
Cn1nnc(-c2ccc(COC(c3ccc(OC(F)(F)F)cc3)C3CCN(Cc4ccc(-c5nnn(C)n5)cc4)CC3)cc2)n1 (stereo not drawn) [Compound 306] | 33 | 59
CCn1nnc(-c2ccc(CN3CCC(C(OC(=O)c4ccc(C(F)(F)F)cc4)c4ccc(OC(F)(F)F)cc4)CC3)cc2)n1 (stereo not drawn) [Compound 307] | 100 | 92
CCn1nnc(-c2ccc(CN3CCC(C(OC(=O)c4ccc(OC(F)(F)F)cc4)c4ccc(OC(F)(F)F)cc4)CC3)cc2)n1 (stereo not drawn) [Compound 308] | 100 | 92
Cn1nnc(-c2ccc(CN3CCC(C(NCc4ccccc4Cl)c4ccc(OC(F)(F)F)cc4)CC3)cc2)n1 (stereo not drawn) [Compound 309] | 100 | 100
Cn1nnc(-c2ccc(CN3CCC(C(NCc4cccc(Cl)c4)c4ccc(OC(F)(F)F)cc4)CC3)cc2)n1 (stereo not drawn) [Compound 310] | 100 | 100
Cn1nnc(-c2ccc(CN3CCC(C(NCc4ccc(Cl)cc4)c4ccc(OC(F)(F)F)cc4)CC3)cc2)n1 (stereo not drawn) [Compound 311] | 100 | 100
Cn1nnc(-c2ccc(CN3CCC(C(NCc4ccc(Br)cc4)c4ccc(OC(F)(F)F)cc4)CC3)cc2)n1 (stereo not drawn) [Compound 312] | 100 | 100
Cn1nnc(-c2ccc(CN3CCC(C(NCc4ccccc4F)c4ccc(OC(F)(F)F)cc4)CC3)cc2)n1 (stereo not drawn) [Compound 313] | 100 | 100
Cn1nnc(-c2ccc(CN3CCC(C(NCc4cccc(F)c4)c4ccc(OC(F)(F)F)cc4)CC3)cc2)n1 (stereo not drawn) [Compound 314] | 100 | 100
Cn1nnc(-c2ccc(CN3CCC(C(NCc4ccc(F)cc4)c4ccc(OC(F)(F)F)cc4)CC3)cc2)n1 (stereo not drawn) [Compound 315] | 100 | 100
Cn1nnc(-c2ccc(CN3CCC(C(NCc4ccc(I)cc4)c4ccc(OC(F)(F)F)cc4)CC3)cc2)n1 (stereo not drawn) [Compound 316] | 50 | 100
Cc1ccc(CNC(c2ccc(OC(F)(F)F)cc2)C2CCN(Cc3ccc(-c4nnn(C)n4)cc3)CC2)cc1 (stereo not drawn) [Compound 317] | 100 | 100
COc1ccc(CNC(c2ccc(OC(F)(F)F)cc2)C2CCN(Cc3ccc(-c4nnn(C)n4)cc3)CC2)cc1 (stereo not drawn) [Compound 318] | 100 | 100

Compound | Percent Mortality [%] | Percent Growth Inhibition [%]
Cn1nnc(-c2ccc(CN3CCC(C(NCc4ccc(OC(F)(F)F)cc4)c4ccc(OC(F)(F)F)cc4)CC3)cc2)n1 (stereo not drawn) [Compound 319] | 100 | 100
Cn1nnc(-c2ccc(CN3CCC(C(NCc4ccc([N+](=O)[O-])cc4)c4ccc(OC(F)(F)F)cc4)CC3)cc2)n1 (stereo not drawn) [Compound 320] | 100 | 100
Cn1nnc(-c2ccc(CN3CCC(C(NC(=O)c4ccccc4)c4ccc(OC(F)(F)F)cc4)CC3)cc2)n1 (stereo not drawn) [Compound 321] | 17 | 95
Cn1nnc(-c2ccc(CN3CCC(C(NC(=O)c4ccccc4Cl)c4ccc(OC(F)(F)F)cc4)CC3)cc2)n1 (stereo not drawn) [Compound 322] | 0 | 78
Cn1nnc(-c2ccc(CN3CCC(C(NC(=O)c4cccc(Cl)c4)c4ccc(OC(F)(F)F)cc4)CC3)cc2)n1 (stereo not drawn) [Compound 323] | 67 | 98
Cn1nnc(-c2ccc(CN3CCC(C(NC(=O)c4ccc(Cl)cc4)c4ccc(OC(F)(F)F)cc4)CC3)cc2)n1 (stereo not drawn) [Compound 324] | 83 | 99
Cn1nnc(-c2ccc(CN3CCC(C(NC(=O)c4ccc(Br)cc4)c4ccc(OC(F)(F)F)cc4)CC3)cc2)n1 (stereo not drawn) [Compound 325] | 50 | 100
Cn1nnc(-c2ccc(CN3CCC(C(NC(=O)c4ccccc4F)c4ccc(OC(F)(F)F)cc4)CC3)cc2)n1 (stereo not drawn) [Compound 326] | 0 | 93
Cn1nnc(-c2ccc(CN3CCC(C(NC(=O)c4cccc(F)c4)c4ccc(OC(F)(F)F)cc4)CC3)cc2)n1 (stereo not drawn) [Compound 327] | 0 | 99
Cn1nnc(-c2ccc(CN3CCC(C(NC(=O)c4ccc(F)cc4)c4ccc(OC(F)(F)F)cc4)CC3)cc2)n1 (stereo not drawn) [Compound 328] | 0 | 95
Cn1nnc(-c2ccc(CN3CCC(C(NC(=O)c4ccc(I)cc4)c4ccc(OC(F)(F)F)cc4)CC3)cc2)n1 (stereo not drawn) [Compound 329] | 50 | 99
Cc1ccc(C(=O)NC(c2ccc(OC(F)(F)F)cc2)C2CCN(Cc3ccc(-c4nnn(C)n4)cc3)CC2)cc1 (stereo not drawn) [Compound 330] | 33 | 89
COc1ccc(C(=O)NC(c2ccc(OC(F)(F)F)cc2)C2CCN(Cc3ccc(-c4nnn(C)n4)cc3)CC2)cc1 (stereo not drawn) [Compound 331] | 67 | 98
Cn1nnc(-c2ccc(CN3CCC(C(NC(=O)c4ccc(OC(F)(F)F)cc4)c4ccc(OC(F)(F)F)cc4)CC3)cc2)n1 (stereo not drawn) [Compound 332] | 100 | 100
Cn1nnc(-c2ccc(CN3CCC(C(NC(=O)c4ccc([N+](=O)[O-])cc4)c4ccc(OC(F)(F)F)cc4)CC3)cc2)n1 (stereo not drawn) [Compound 333] | 17 | 99
Cn1nnc(-c2ccc(CN3CCC(C(NC(=O)Nc4ccccc4Cl)c4ccc(OC(F)(F)F)cc4)CC3)cc2)n1 (stereo not drawn) [Compound 334] | 100 | 100
Cn1nnc(-c2ccc(CN3CCC(C(NC(=O)Nc4cccc(Cl)c4)c4ccc(OC(F)(F)F)cc4)CC3)cc2)n1 (stereo not drawn) [Compound 335] | 100 | 100
Cn1nnc(-c2ccc(CN3CCC(C(NC(=O)Nc4ccc(Cl)cc4)c4ccc(OC(F)(F)F)cc4)CC3)cc2)n1 (stereo not drawn) [Compound 336] | 100 | 100
Cn1nnc(-c2ccc(CN3CCC(C(NC(=O)Nc4ccc(Br)cc4)c4ccc(OC(F)(F)F)cc4)CC3)cc2)n1 (stereo not drawn) [Compound 337] | 100 | 100
Cn1nnc(-c2ccc(CN3CCC(C(NC(=O)Nc4ccccc4F)c4ccc(OC(F)(F)F)cc4)CC3)cc2)n1 (stereo not drawn) [Compound 338] | 100 | 100
Cn1nnc(-c2ccc(CN3CCC(C(NC(=O)Nc4cccc(F)c4)c4ccc(OC(F)(F)F)cc4)CC3)cc2)n1 (stereo not drawn) [Compound 339] | 50 | 100
Cn1nnc(-c2ccc(CN3CCC(C(NC(=O)Nc4ccc(F)cc4)c4ccc(OC(F)(F)F)cc4)CC3)cc2)n1 (stereo not drawn) [Compound 340] | 83 | 100
Cn1nnc(-c2ccc(CN3CCC(C(NC(=O)Nc4ccc(I)cc4)c4ccc(OC(F)(F)F)cc4)CC3)cc2)n1 (stereo not drawn) [Compound 341] | 100 | 100
Cc1ccc(NC(=O)NC(c2ccc(OC(F)(F)F)cc2)C2CCN(Cc3ccc(-c4nnn(C)n4)cc3)CC2)cc1 (stereo not drawn) [Compound 342] | 100 | 100
